Source: ChEMBL document CHEMBL1287643, “3D-QSAR pharmacophore modeling and in silico screening of new Bcl-xl inhibitors” (Eur J Med Chem, 2010)

What follows are molecules tested against Bcl-2-like protein 1 (Homo sapiens, UniProt Q07817) (assay: Inhibition of Bcl-XL).
Chain of Bcl-2-like protein 1 (Q07817 whole entry): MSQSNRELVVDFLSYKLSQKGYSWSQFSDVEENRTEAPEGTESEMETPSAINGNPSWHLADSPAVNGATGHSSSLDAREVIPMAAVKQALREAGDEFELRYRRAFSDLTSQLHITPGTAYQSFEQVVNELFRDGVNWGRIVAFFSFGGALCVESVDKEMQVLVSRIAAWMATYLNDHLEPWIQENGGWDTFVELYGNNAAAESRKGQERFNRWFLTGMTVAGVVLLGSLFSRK

`CN(C)CCC(CSc1ccccc1)Nc1ccc(S(=O)(=O)NC(=O)c2ccc(N3CCC(=Cc4cccnc4)CC3)cc2)cc1[N+](=O)[O-]` (stereo unspecified) was tested. Which EC50 did it give?
The EC50 was 1.9 µM.

With `COC1(Cc2ccccc2C)CCN(c2ccc(C(=O)NS(=O)(=O)c3ccc(NC(CCN(C)C)CSc4ccccc4)c([N+](=O)[O-])c3)cc2)CC1` (stereo unspecified) as the molecule, how does the EC50 read?
Its EC50 is 0.15 µM.

For `COc1ccccc1CN1CCN(c2ccc(C(=O)NS(=O)(=O)c3ccc(NC(CCN(C)C)CSc4ccccc4)c([N+](=O)[O-])c3)cc2)CC1` (stereo unspecified), which EC50 is on record?
Its EC50 is 0.39 µM.

For `CN(C)CCC(CSc1ccccc1)Nc1ccc(S(=O)(=O)NC(=O)c2ccc(N3CCC(=Cc4ccccc4-c4ccccc4)CC3)cc2)cc1[N+](=O)[O-]` (stereo unspecified), which EC50 is on record?
Its EC50 is 0.16 µM.

`CN(C)CCC(CSc1ccccc1)Nc1ccc(S(=O)(=O)NC(=O)c2ccc(N3CCC(=Cc4ccc(Cl)cc4)CC3)cc2)cc1[N+](=O)[O-]` (stereo unspecified) was tested. Which EC50 did it give?
Its EC50 is 0.619 µM.

For `COC1(Cc2ccccc2)CCN(c2ccc(C(=O)NS(=O)(=O)c3ccc(NC(CCN(C)C)CSc4ccccc4)c([N+](=O)[O-])c3)cc2)CC1` (stereo unspecified), which EC50 is on record?
The EC50 was 0.681 µM.

`CN(C)CCC(CSc1ccccc1)Nc1ccc(S(=O)(=O)NC(=O)c2ccc(N3CCC(=Cc4ccc(F)cc4)CC3)cc2)cc1[N+](=O)[O-]` (stereo unspecified) was tested. Which EC50 did it give?
The EC50 was 0.38 µM.

How did the EC50 turn out when `COC1(CC(C)(C)C)CCN(c2ccc(C(=O)NS(=O)(=O)c3ccc(NC(CCN(C)C)CSc4ccccc4)c([N+](=O)[O-])c3)cc2)CC1` (stereo unspecified) was run?
The EC50 was 0.75 µM.

With `CN(C)CCC(CSc1ccccc1)Nc1ccc(S(=O)(=O)NC(=O)c2ccc(N3CCC(=Cc4ccccc4C(F)(F)F)CC3)cc2)cc1[N+](=O)[O-]` (stereo unspecified) as the molecule, how does the EC50 read?
The EC50 was 0.15 µM.

How did the EC50 turn out when `CN(C)CCC(CSc1ccccc1)Nc1ccc(S(=O)(=O)NC(=O)c2ccc(N3CCN(Cc4ccccc4-c4ccccc4Cl)CC3)cc2)cc1[N+](=O)[O-]` (stereo unspecified) was run?
Its EC50 is 0.056 µM.

For `COC1(Cc2ccccc2-c2ccccc2)CCN(c2ccc(C(=O)NS(=O)(=O)c3ccc(NC(CCN(C)C)CSc4ccccc4)c([N+](=O)[O-])c3)cc2)CC1` (stereo unspecified), which EC50 is on record?
Its EC50 is 0.035 µM.

With `CN(C)CCC(CSc1ccccc1)Nc1ccc(S(=O)(=O)NC(=O)c2ccc(N3CCC(=Cc4ccccc4C#N)CC3)cc2)cc1[N+](=O)[O-]` (stereo unspecified) as the molecule, how does the EC50 read?
The EC50 was 1.1 µM.

With `CN(C)CCC(CSc1ccccc1)Nc1ccc(S(=O)(=O)NC(=O)c2ccc(N3CCN(Cc4ccccc4-c4ccc(C(F)(F)F)cc4)CC3)cc2)cc1[N+](=O)[O-]` (stereo unspecified) as the molecule, how does the EC50 read?
The EC50 was 0.04 µM.

`CN(C)CCC(CSc1ccccc1)Nc1ccc(S(=O)(=O)NC(=O)c2ccc(N3CCN(Cc4ccccc4NC4CCCCC4)CC3)cc2)cc1[N+](=O)[O-]` (stereo unspecified) was tested. Which EC50 did it give?
Its EC50 is 0.661 µM.

How did the EC50 turn out when `COC1(CC2CCCCC2)CCN(c2ccc(C(=O)NS(=O)(=O)c3ccc(NC(CCN(C)C)CSc4ccccc4)c([N+](=O)[O-])c3)cc2)CC1` (stereo unspecified) was run?
Its EC50 is 0.32 µM.

With `COC1(Cc2ccc(-c3ccccc3)cc2)CCN(c2ccc(C(=O)NS(=O)(=O)c3ccc(NC(CCN(C)C)CSc4ccccc4)c([N+](=O)[O-])c3)cc2)CC1` (stereo unspecified) as the molecule, how does the EC50 read?
The EC50 was 0.6 µM.

How did the EC50 turn out when `CN(C)CCC(CSc1ccccc1)Nc1ccc(S(=O)(=O)NC(=O)c2ccc(N3CCN(Cc4ccccc4-c4cccnc4)CC3)cc2)cc1[N+](=O)[O-]` (stereo unspecified) was run?
Its EC50 is 0.8 µM.

How did the EC50 turn out when `CN(C)CCC(CSc1ccccc1)Nc1ccc(S(=O)(=O)NC(=O)c2ccc(N3CCN(Cc4ccccc4-c4ccc(-c5ccccc5)cc4)CC3)cc2)cc1[N+](=O)[O-]` (stereo unspecified) was run?
Its EC50 is 0.022 µM.

With `CN(C)CCC(CSc1ccccc1)Nc1ccc(S(=O)(=O)NC(=O)c2ccc(N3CCN(Cc4ccccc4-c4cccc(Cl)c4)CC3)cc2)cc1[N+](=O)[O-]` (stereo unspecified) as the molecule, how does the EC50 read?
Its EC50 is 0.18 µM.

For `CN(C)CCC(CSc1ccccc1)Nc1ccc(S(=O)(=O)NC(=O)c2ccc(N3CCN(Cc4ccccc4C4CCCCC4)CC3)cc2)cc1[N+](=O)[O-]` (stereo unspecified), which EC50 is on record?
The EC50 was 0.34 µM.

How did the EC50 turn out when `CN(C)CCC(CSc1ccccc1)Nc1ccc(S(=O)(=O)NC(=O)c2ccc(N3CCC(=Cc4ccccc4F)CC3)cc2)cc1[N+](=O)[O-]` (stereo unspecified) was run?
Its EC50 is 0.25 µM.

With `COC1(Cc2ccc(Cl)cc2)CCN(c2ccc(C(=O)NS(=O)(=O)c3ccc(NC(CCN(C)C)CSc4ccccc4)c([N+](=O)[O-])c3)cc2)CC1` (stereo unspecified) as the molecule, how does the EC50 read?
Its EC50 is 0.4 µM.

How did the EC50 turn out when `CN(C)CCC(CSc1ccccc1)Nc1ccc(S(=O)(=O)NC(=O)c2ccc(N3CCN(Cc4ccccc4-c4ccc(F)cc4)CC3)cc2)cc1[N+](=O)[O-]` (stereo unspecified) was run?
Its EC50 is 0.13 µM.

`COC1(CC(C)C)CCN(c2ccc(C(=O)NS(=O)(=O)c3ccc(NC(CCN(C)C)CSc4ccccc4)c([N+](=O)[O-])c3)cc2)CC1` (stereo unspecified) was tested. Which EC50 did it give?
Its EC50 is 0.579 µM.

For `COc1ccccc1C=C1CCN(c2ccc(C(=O)NS(=O)(=O)c3ccc(NC(CCN(C)C)CSc4ccccc4)c([N+](=O)[O-])c3)cc2)CC1` (stereo unspecified), which EC50 is on record?
The EC50 was 0.3 µM.

Which EC50 does the source give for `CN(C)CCC(CSc1ccccc1)Nc1ccc(S(=O)(=O)NC(=O)c2ccc(N3CCC(=Cc4ccc(C(F)(F)F)cc4)CC3)cc2)cc1[N+](=O)[O-]` (stereo unspecified) here?
The EC50 was 2.6 µM.

How did the EC50 turn out when `COC1(Cc2ccccc2Cl)CCN(c2ccc(C(=O)NS(=O)(=O)c3ccc(NC(CCN(C)C)CSc4ccccc4)c([N+](=O)[O-])c3)cc2)CC1` (stereo unspecified) was run?
The EC50 was 0.23 µM.

`CN(C)CCC(CSc1ccccc1)Nc1ccc(S(=O)(=O)NC(=O)c2ccc(N3CCN(Cc4ccccc4S(C)(=O)=O)CC3)cc2)cc1[N+](=O)[O-]` (stereo unspecified) was tested. Which EC50 did it give?
Its EC50 is 5.5 µM.

How did the EC50 turn out when `CN(C)CCC(CSc1ccccc1)Nc1ccc(S(=O)(=O)NC(=O)c2ccc(N3CCC(=Cc4ccccn4)CC3)cc2)cc1[N+](=O)[O-]` (stereo unspecified) was run?
Its EC50 is 0.55 µM.

With `COC1(Cc2ccccc2Br)CCN(c2ccc(C(=O)NS(=O)(=O)c3ccc(NC(CCN(C)C)CSc4ccccc4)c([N+](=O)[O-])c3)cc2)CC1` (stereo unspecified) as the molecule, how does the EC50 read?
The EC50 was 0.1 µM.

For `COc1ccccc1CC1(OC)CCN(c2ccc(C(=O)NS(=O)(=O)c3ccc(NC(CCN(C)C)CSc4ccccc4)c([N+](=O)[O-])c3)cc2)CC1` (stereo unspecified), which EC50 is on record?
The EC50 was 0.15 µM.

For `COc1cccc(-c2ccccc2CN2CCN(c3ccc(C(=O)NS(=O)(=O)c4ccc(NC(CCN(C)C)CSc5ccccc5)c([N+](=O)[O-])c4)cc3)CC2)c1` (stereo unspecified), which EC50 is on record?
The EC50 was 0.38 µM.

`CN(C)CCC(CSc1ccccc1)Nc1ccc(S(=O)(=O)NC(=O)c2ccc(N3CCN(Cc4ccccc4-c4ccccc4)CC3)cc2)cc1[N+](=O)[O-]` (stereo unspecified) was tested. Which EC50 did it give?
The EC50 was 0.018 µM.

With `Cc1ccccc1CN1CCN(c2ccc(C(=O)NS(=O)(=O)c3ccc(NC(CCN(C)C)CSc4ccccc4)c([N+](=O)[O-])c3)cc2)CC1` (stereo unspecified) as the molecule, how does the EC50 read?
Its EC50 is 0.41 µM.

How did the EC50 turn out when `CN(C)CCC(CSc1ccccc1)Nc1ccc(S(=O)(=O)NC(=O)c2ccc(N3CCN(Cc4ccccc4C(F)(F)F)CC3)cc2)cc1[N+](=O)[O-]` (stereo unspecified) was run?
The EC50 was 0.39 µM.

Which EC50 does the source give for `CN(C)CCC(CSc1ccccc1)Nc1ccc(S(=O)(=O)NC(=O)c2ccc(N3CCN(Cc4ccccc4)CC3)cc2)cc1[N+](=O)[O-]` (stereo unspecified) here?
Its EC50 is 1.1 µM.

`COc1ccc(-c2ccccc2CN2CCN(c3ccc(C(=O)NS(=O)(=O)c4ccc(NC(CCN(C)C)CSc5ccccc5)c([N+](=O)[O-])c4)cc3)CC2)cc1` (stereo unspecified) was tested. Which EC50 did it give?
The EC50 was 0.03 µM.

With `CN(C)CCC(CSc1ccccc1)Nc1ccc(S(=O)(=O)NC(=O)c2ccc(N3CCN(Cc4ccccc4-c4ccc(S(C)(=O)=O)cc4)CC3)cc2)cc1[N+](=O)[O-]` (stereo unspecified) as the molecule, how does the EC50 read?
Its EC50 is 0.46 µM.

For `COC1(Cc2cccc(Cl)c2)CCN(c2ccc(C(=O)NS(=O)(=O)c3ccc(NC(CCN(C)C)CSc4ccccc4)c([N+](=O)[O-])c3)cc2)CC1` (stereo unspecified), which EC50 is on record?
The EC50 was 0.25 µM.

How did the EC50 turn out when `CSc1ccccc1CN1CCN(c2ccc(C(=O)NS(=O)(=O)c3ccc(NC(CCN(C)C)CSc4ccccc4)c([N+](=O)[O-])c3)cc2)CC1` (stereo unspecified) was run?
The EC50 was 0.0951 µM.

Which EC50 does the source give for `COC1(Cc2ccccc2F)CCN(c2ccc(C(=O)NS(=O)(=O)c3ccc(NC(CCN(C)C)CSc4ccccc4)c([N+](=O)[O-])c3)cc2)CC1` (stereo unspecified) here?
The EC50 was 0.18 µM.
